Holding throughout (set-up): species or system human
In one assay the test system is AKT Phospho-Ser473. As to the kind of experiment: NanoBiT p-AKT cell-based immunoassay in MCF-7 cells. The settings on record: for P-AKT (% compared to no LY294002) / P-AKT, Raw data / P-AKT, Subtract reagent background: single replicates. The method, then: (§1) Prior to NanoBiT Cell-Based Immunoassay, 50,000 cells were seeded in 160 µl of complete growth media per well of a 96-well plate and incubated overnight. The cells were checked under microscope and it was determined that 50,000 cells per well in 96-well plate is under 90% confluency for all cells tested. If necessary, the cell culture media were replaced with serum-free media after the cells were stably adherent on the plate and incubated overnight. To treat cells with activators or inhibitors, medium was changed to 30 µl of medium containing inhibitors. If activation of a specific pathway is needed, the cells were stimulated with 10 µl of medium containing activators. To lyse the cells, 10 µl of lysis buffer containing 0.1% digitonin diluted in 1X immunoassay buffer with protease and phosphatase inhibitors was added and the plates were mixed vigorously for 20 min. Then, 50 µl of an antibody mix containing two primary antibodies against the target protein and NanoBiT detecting antibodies (0.3 µl each per well), diluted in 1X immunoassay buffer was added to the lysates. The plates were incubated at 23 °C for 90 min, followed by the addition of 25 µl of Nano-Glo® reagent consisting of Nano-Glo® Luciferase Assay Substrate mixed with 1X immunoassay buffer. Luminescence was measured using a plate-reading luminometer.
(§2) Single dose or dose response inhibitor treatments were performed prior to activation of the pathways as follows. For IκBα, the cells were treated in 30 µl medium with IKK16 or MG132 for 60 min before the addition of 10 µl of DMEM containing appropriate concentration of TNFα. To measure phosphorylation of AKT or STAT3, the corresponding NanoBiT immunoassays were developed with MCF-7 or A431 cells, respectively, according the same scheme used to develop the IκBα assay using the primary antibodies for AKT and STAT3 described in the reagents section. For the AKT assay, MCF-7 cells were incubated overnight in phenol-red free DMEM medium (Gibco #21063-029) without serum. Treatment with LY294002 was performed in 30 µl medium and cells were incubated for 60 min before the addition of 1 µM Insulin. To measure STAT3 phosphorylation, A431 cells were incubated overnight in DMEM medium without serum. […] After addition of the stimulators, the cells were incubated for additional times as follows. IκBα phosphorylation and degradation analyses required both time courses and single time points as described in figures. […] The NanoBiT immunoassay protocol was followed as described above.
(§3) All 96-well assay plates were read using a GloMax® 96 Microplate Luminometer from Promega. The instrument was set to 0.5 s integration time. In order to obtain net change of signal, the reagent background values (signal from the well containing all reagent except primary antibodies) were subtracted from the sample values. To plot and analyze the data, Microsoft Excel and GraphPad Prism® Software were used. IC50 values were determined by using a nonlinear regression fit to a sigmoidal dose response (variable slope).

The test system of another assay is total AKT. The experiment in a line: NanoBiT cell-based immunoassay, total AKT in MCF-7 cells. Particulars: for total level of AKT protein: MCF-7 cells, insulin 1 µM 10 min, LY294002 20 µM 1 h. The method, then:
as §1, §2, §3

In a further assay the test system is STAT3 Phospho-Tyr705. As to the kind of experiment: NanoBiT pSTAT3 cell-based immunoassay in A431 cells. The settings on record: substance alone. In short, it runs like this:
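Cells were lysed in 0.1% digitonin buffer, then target protein was detected with two primary antibodies plus NanoBiT detection antibodies (90 min, 23 °C), read as luminescence minus reagent background. For pSTAT3, A431 cells were serum-starved overnight before inhibitor and stimulator. For IκBα, MCF-7 cells got inhibitor for 60 min before TNFα. IC50 came from variable-slope sigmoidal fits.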

The test system of the next assay is total STAT3. The experiment in a line: NanoBiT cell-based immunoassay, total STAT3 in A431 cells. The settings on record: substance alone. The method, then:
as §1, with “The cells were checked under microscope and it was determined that 50,000 cells per well in 96-well plate is under 90% confluency for all cells tested.” left out
Single dose or dose response inhibitor treatments were performed prior to activation of the pathways as follows. For IκBα, the cells were treated in 30 µl medium with IKK16 or MG132 for 60 min before the addition of 10 µl of DMEM containing appropriate concentration of TNFα. To measure phosphorylation of AKT or STAT3, the corresponding NanoBiT immunoassays were developed with MCF-7 or A431 cells, respectively, according the same scheme used to develop the IκBα assay using the primary antibodies for AKT and STAT3 described in the reagents section. […] Treatment with LY294002 was performed in 30 µl medium and cells were incubated for 60 min before the addition of 1 µM Insulin. […]
All 96-well assay plates were read using a GloMax® 96 Microplate Luminometer from Promega. […] IC50 values were determined by using a nonlinear regression fit to a sigmoidal dose response (variable slope).

The mark [1] stands for this setting: LY294002 0.00190735 uM, Insulin 1 uM.
[2] abbreviates: LY294002 0.00762939 uM, Insulin 1 uM.
Setting [3] is: LY294002 0.0305176 uM, Insulin 1 uM.
The mark [4] stands for this setting: LY294002 0.12207 uM, Insulin 1 uM.
[5] abbreviates: LY294002 0.488281 uM, Insulin 1 uM.
The mark [6] stands for this setting: LY294002 1.95312 uM, Insulin 1 uM.
Setting [7] is: LY294002 7.8125 uM, Insulin 1 uM.
[8] abbreviates: LY294002 31.25 uM, Insulin 1 uM.
Setting [9] is: background subtracted, average of replicates.
The mark [10] stands for this setting: substance alone, background subtracted, average of replicates.
Where [11] appears, read: substance alone, single replicates.

Experimental findings from article PMC6941952, “A homogeneous bioluminescent immunoassay to probe cellular signaling pathway regulation” (Communications Biology, 2020) are described below.

pIC50: −log10 of the molar value. Where “and” joins values, the source holds several entries; their conditions need not be identical. Equal values may be shown once.

Consider `O=c1cc(N2CCOCC2)oc2c(-c3ccccc3)cccc12` [LY294002, 2-(4-morpholinyl)-8-phenyl-4H-1-benzopyran-4-one], for which the pIC50 in the assay with AKT Phospho-Ser473 (Homo sapiens, MCF7, MCF-7 cells, pretreated 1 h, insulin 1 µM 10 min, read-out: IC50, inhibition of AKT phosphorylation after insulin treatment) is 5.05. The “P-AKT (% compared to no LY294002), Average” value in the assay on AKT Phospho-Ser473 (LY294002 0.00190735 uM, Insulin 1 uM, average of replicates) was 98.2%; with AKT Phospho-Ser473 (LY294002 0.00762939 uM, Insulin 1 uM, average of replicates), 100.2%; in the assay with AKT Phospho-Ser473 (LY294002 0.0305176 uM, Insulin 1 uM, average of replicates), 99.6%; with AKT Phospho-Ser473 (LY294002 0.12207 uM, Insulin 1 uM, average of replicates), 97.0%; in the assay with AKT Phospho-Ser473 (LY294002 0.488281 uM, Insulin 1 uM, average of replicates) it was 97.0%; in the assay with AKT Phospho-Ser473 (LY294002 1.95312 uM, Insulin 1 uM, average of replicates), 89.9%. The “P-AKT (% compared to no LY294002), Average” value is 57.7% with AKT Phospho-Ser473 (LY294002 7.8125 uM, Insulin 1 uM, average of replicates); 11.5% in the assay with AKT Phospho-Ser473 (LY294002 31.25 uM, Insulin 1 uM, average of replicates); 1.5% with AKT Phospho-Ser473 (LY294002 500 uM, Insulin 1 uM, average of replicates); 1.8% in the assay with AKT Phospho-Ser473 (LY294002 […], Insulin 1 uM, average of replicates). Further, the “P-AKT (% compared to no LY294002)” value in the assay with AKT Phospho-Ser473 (setting [1]) was 99.8% and 97.4% and 97.5%; in the assay with AKT Phospho-Ser473 (setting [2]) it was 101.9% and 99.8% and 98.9%; in the assay on AKT Phospho-Ser473 (setting [3]) it was 100.5% and 98.7% and 99.6%; in the assay on AKT Phospho-Ser473 (setting [4]) it was 98.2% and 96.0% and 96.8%; in the assay on AKT Phospho-Ser473 (setting [5]), 100.1% and 96.2% and 94.5%; with AKT Phospho-Ser473 (setting [6]) it was 90.1% and 89.4%. Further, the “P-AKT (% compared to no LY294002)” value with AKT Phospho-Ser473 (setting [7]) is 58.2% and 58.0% and 57.0%; in the assay with AKT Phospho-Ser473 (setting [8]) it was 11.5% and 11.7% and 11.4%; in the assay on AKT Phospho-Ser473 (LY294002 500 uM, Insulin 1 uM), 1.5% and 1.4% and 1.6%. Also, the “P-AKT, Raw data” value in the assay with AKT Phospho-Ser473 (setting [1]) is 2596000 and 2655000 and 2614000; in the assay on AKT Phospho-Ser473 (setting [2]), 2632000 and 2707000 and 2673000; in the assay with AKT Phospho-Ser473 (setting [3]) it was 2646000 and 2668000 and 2645000; in the assay with AKT Phospho-Ser473 (setting [4]) it was 2577000 and 2614000 and 2578000; in the assay with AKT Phospho-Ser473 (setting [5]), 2521000 and 2661000 and 2582000; in the assay with AKT Phospho-Ser473 (setting [6]), 2390000 and 2409000 and 2425000. For the same molecule, the “P-AKT, Raw data” value in the assay with AKT Phospho-Ser473 (setting [7]) is 1581000 and 1612000 and 1617000; in the assay on AKT Phospho-Ser473 (setting [8]), 439900 and 442300 and 448200; in the assay on AKT Phospho-Ser473 (LY294002 500 uM, Insulin 1 uM) it was 166500 and 165600 and 161400. The “P-AKT, Subtract reagent background” value is 2495800 and 2454800 and 2436800 in the assay on AKT Phospho-Ser473 (setting [1]); 2548800 and 2514800 and 2473800 in the assay with AKT Phospho-Ser473 (setting [2]); 2511750 and 2488750 and 2489750 in the assay on AKT Phospho-Ser473 (setting [3]); 2456500 and 2420500 and 2419500 in the assay with AKT Phospho-Ser473 (setting [4]); 2503600 and 2424600 and 2363600 with AKT Phospho-Ser473 (setting [5]); 2253650 and 2269650 and 2234650 in the assay on AKT Phospho-Ser473 (setting [6]). The “P-AKT, Subtract reagent background” value in the assay on AKT Phospho-Ser473 (setting [7]) was 1455800 and 1460800 and 1424800; with AKT Phospho-Ser473 (setting [8]), 288200 and 294100 and 285800; in the assay with AKT Phospho-Ser473 (LY294002 500 uM, Insulin 1 uM) it was 38600 and 34400 and 39500. Further, the “insulin-induced increase in AKT phosphorylation” value in the assay with AKT Phospho-Ser473 (MCF-7 cells, 20 µM 1 h pretreatment, insulin 1 µM 10 min) is “suppressed”. In addition, the “total level of AKT protein” value in the assay with total AKT is given as “stayed constant”.

Take IL-6: the “P-STAT3, Average” value with STAT3 Phospho-Tyr705 (setting [9]) is reported as 418850. In the assay with STAT3 Phospho-Tyr705 (single replicates), the “P-STAT3 Raw data” value is 458600 and 528900 and 577100; the “P-STAT3 Subtract reagent background” value is 355917 and 426217 and 474417. Also, in the assay with total STAT3 (setting [9]), the “Total STAT3, Average” value is 1196983. Also, in the assay with total STAT3 (single replicates), the “Total Stat3, Raw data” value was 1090000 and 1448000; the “Total Stat3, Subtract reagent background” value was 1345317 and 987317.

As for “insulin: Insulin (#I-0516) from Sigma-Aldrich, AKT pathway stimulator”, the “AKT phosphorylation over the level in non-treated cells” value in the assay with AKT Phospho-Ser473 (MCF-7 cells, insulin 1 µM 10 min) is “more than 20 fold”. In the assay with AKT Phospho-Ser473 (setting [10]), the “P-AKT, Average” value worked out at 2201625. In the assay with AKT Phospho-Ser473 (substance alone), the “P-AKT, Raw data” value is 2263000 and 2421000 and 2357000 and 2406000; the “P-AKT, Subtract reagent background” value is 2102700 and 2260800 and 2195400 and 2247600. Moreover, in the assay on total AKT, the “total level of AKT protein” value was “stayed constant”. Also, the “Total AKT, Average” value in the assay with total AKT (setting [10]) is 108225. In the assay on total AKT (setting [11]), the “Total AKT, Raw data” value is 265700 and 270200 and 257000 and 278000; the “Total AKT, Subtract reagent background” value is 121700 and 104800 and 109800 and 96600.

As usually defined, the pIC50 is −log10 of the IC50, conventionally taken in molar units.
